Source: patent US6825354B2 (Wyeth Holdings Corporation, priority 1999, dated 2004)
Where a name gives a salt, the structure may show the parent alone. Read-outs that look alike come from different tables or passages of the source. Blank lines part the entries; values can stand above or below the compound they belong to.

How the values were obtained:
MMP-1 = target: T1, MMP-1 (Homo sapiens, UniProt P03956); assay: MMP-1 inhibition, thiopeptide or fluorescent peptide substrate; type: biochemical; conditions: for IC50: Table 1, first part, read-out: MMP1 IC50; for MMP1 % @ 10 μM: Table 1, second part
T1 sequence (P03956 100-469): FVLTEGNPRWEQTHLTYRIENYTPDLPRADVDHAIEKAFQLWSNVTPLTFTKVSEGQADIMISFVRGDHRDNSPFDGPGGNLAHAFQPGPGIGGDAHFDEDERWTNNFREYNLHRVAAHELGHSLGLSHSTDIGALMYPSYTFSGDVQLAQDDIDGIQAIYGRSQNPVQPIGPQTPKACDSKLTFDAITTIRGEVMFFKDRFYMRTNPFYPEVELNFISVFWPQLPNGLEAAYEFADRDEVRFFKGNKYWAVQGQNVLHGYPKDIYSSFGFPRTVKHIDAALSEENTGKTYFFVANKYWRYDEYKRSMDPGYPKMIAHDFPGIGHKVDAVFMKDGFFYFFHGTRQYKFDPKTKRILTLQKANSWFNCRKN
Method: (§1) The enzyme activity is measured by the rate of the color increase. The thiopeptide substrate is made up fresh as a 20 mM stock in 100% DMSO and the DTNB is dissolved in 100% DMSO as a 100 mM stock and stored in the dark at room temperature. Both the substrate and DTNB are diluted together to 1 mM with substrate buffer (50 mM HEPES pH 7.5, 5 mM CaCl2) before use. The stock of enzyme is diluted with buffer (50 mM HEPES, pH 7.5, 5 mM CaC12, 0.02% Brij) to the desired final concentration.
(§2) Alternatively, a fluorescent peptide substrate is used. In this test procedure, the peptide substrate contains a fluorescent group and a quenching group. Upon cleavage of the substrate by an MMP, the fluorescence that is generated is quantitated on the fluorescence plate reader. The assay is run in HCBC assay buffer (50 mM HEPES, pH 7.0, 5 mM Ca^+2, 0.02% Brij, 0.5% Cysteine), with human recombinant MMP-1, MMP-9, or MMP-13. The substrate is dissolved in methanol and stored frozen in 1 mM aliquots. For the assay, substrate and enzymes are diluted in HCBC buffer to the desired concentrations. Compounds are added to the 96 well plate containing enzyme and the reaction is started by the addition of substrate.
(§3) For either the thiopeptide or fluorescent peptide test procedures, the slope of the line is calculated and represents the reaction rate. […] The mean (x±sem) of the control rate is calculated and compared for statistical significance (p<0.05) with drug-treated rates using Dunnett's multiple comparison test.

[1] = target: TNF-α converting enzyme (TACE) (Homo sapiens, UniProt P78536); assay: TACE inhibition, fluorescent peptidyl substrate; type: biochemical; conditions: for IC50: read-out: TACE IC50
Chain of TNF-α converting enzyme (TACE) (P78536 215-824): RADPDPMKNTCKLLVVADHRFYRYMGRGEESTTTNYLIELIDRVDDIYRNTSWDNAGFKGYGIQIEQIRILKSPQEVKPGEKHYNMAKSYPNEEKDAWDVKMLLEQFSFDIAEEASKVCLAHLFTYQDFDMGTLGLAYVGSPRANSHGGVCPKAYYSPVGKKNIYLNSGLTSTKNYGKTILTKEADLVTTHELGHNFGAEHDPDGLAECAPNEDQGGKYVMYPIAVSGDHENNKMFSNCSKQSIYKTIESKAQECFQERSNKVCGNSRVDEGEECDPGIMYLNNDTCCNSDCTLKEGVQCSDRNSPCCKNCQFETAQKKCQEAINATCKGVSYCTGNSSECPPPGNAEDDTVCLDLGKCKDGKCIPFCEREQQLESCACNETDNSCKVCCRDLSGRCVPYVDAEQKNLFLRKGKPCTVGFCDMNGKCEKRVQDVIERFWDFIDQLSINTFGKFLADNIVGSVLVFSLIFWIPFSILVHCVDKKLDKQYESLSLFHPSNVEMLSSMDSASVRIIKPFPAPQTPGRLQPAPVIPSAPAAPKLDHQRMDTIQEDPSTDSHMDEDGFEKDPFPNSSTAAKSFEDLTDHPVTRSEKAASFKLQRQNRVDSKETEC
Method: […] The reaction is initiated by addition of a fluorescent peptidyl substrate (final concentration 100 μM) to each well and then shaking on a shaker for 5 sec.
The reaction is read (excitation 340 nm, emission 420 nm) for 10 min. and the increase in fluorescence over time is plotted as a linear line. The slope of the line is calculated and represents the reaction rate.
The mean (x±sem) of the control rate is calculated and compared for statistical significance (p<0.05) with drug-treated rates using Dunnett's multiple comparison test.

MMP-13 = MMP-13 (Homo sapiens, UniProt P45452); assay: MMP-13 inhibition, thiopeptide or fluorescent peptide substrate; type: biochemical; conditions: Table 1, second part; 10 μM
Method: as §1, §2, §3

[2] = tested on: THP-1 cells (soluble TNF-α); assay: Human monocytic THP-1 cell differentiation assay for soluble proteins (THP soluble protein assay); type: cell-based; conditions: negative = less TNF-α; for TNFalpha at 3 uM, THP (percent change): percent change from vehicle positive control; for inhibition at 3 µM: Homo sapiens, THP-1, percent change from vehicle positive control, read-out: TNFalpha at 3 uM, THP (percent change)
Text: Mitogenic stimulation of THP-1 cells cause differentiation into macrophage like cells with concomitant secretion of tumor necrosis factor (TNF-a) and TNF receptor (TNF-R p75/80 and TNF-R p55/60) and Interleukin-8 (IL-8), among other proteins. […] The release of membrane bound TNF-a and possibly TNF-R p75/80 and TNF-R p55/60, but not IL-8, is mediated by an enzyme called TNF-α converting enzyme or TACE.
THP-1 cells (from ATCC) are a human monocytic cell line which were obtained from the peripheral blood of a person with acute monocytic leukemia They can be grown in culture and differentiated into macrophage like cells by stimulation with mitogens.
Each vial of cells are cultured for about two weeks prior to being used for an assay and then are used for only 4 to 6 weeks to screen compounds.
Cell exposure to DMSO was limited to 0.1% final concentration. […] Compounds can be evaluated for their effect on basal (non-stimulated) shedding of the receptors by replacing the LPS with […] of THP-1 media Plates are placed into an incubator set at 5% CO2 and at 37° C. After 4 hours of incubation, […] of tissue culture supernatant (TCS) is removed for use in an TNF-α ELISA. Following 24 hours of incubation, […] of TCS is removed and used for analysis in TNF-R p75/80, TNF-R p55/60 and IL-8 ELISAs.
In addition, at the 24 hours timepoint, and the cells for each treatment group are collected by resuspension in 500 μl/well of THP-1 media and transferred into a FACS tube. […] The samples are run on a Becton Dickinson FaxCaliber FLOW cytometry machine and the amount of dye taken up by each cell is measured in the high red wavelength (FL3). Only cells with compromised membranes (dead or dying) can take up PI. The percent of live cells is calculated by the number of cells not stained with PI, divided by the total number of cells in the sample. The viability values calculated for the drug treated groups were compared to the viability value calculated for the vehicle treated mitogen stimulated group (“vehicle positive control”) to determine the “percent change from control”. This “percent change from control” value is an indicator of drug toxicity.
The quantity of soluble TNF-α, TNF-R p75/80 and TNF-R p55/60 and IL-8 in the TCS of the ThP-1 cell cultures are obtained with commercially available ELISAs from R&D Systems, by extrapolation from a standard curve generated with kit standards. The number of cells that either take up or exclude PI are measured by the FLOW cytometry machine and visualized by histograms using commercially available Cytologic software for each treatment group including all controls.
Biological variability in the magnitude of the response of THP-1 cell cultures requires that experiments be compared on the basis of percent change from “vehicle positive control” for each drug concentration. Percent change in each soluble protein evaluated from the “vehicle positive control” was calculated for each compound concentration with the following formula: [formula]
For the soluble protein (TNF-a, p75/80, p55/60, IL-8) studies under stimulated conditions, the mean pg/ml of duplicate wells were determined and the results expressed as percent change from “vehicle positive control”. For the soluble protein (p75/80 and p55/60 receptors) studies under non-stimulated conditions, the mean pglml of duplicate wells were determined and the results expressed as percent change from “vehicle positive control” utilizing the following formula: [formula]
IC50 values for each compound are calculated by non-linear regression analysis using customized software utilizing the JUMP statistical package.
For the cell viability studies, the viabilities (PI exclusion) of pooled duplicate wells were determined and the results expressed as % change from “vehicle positive control”.

Compound: 1-Methyl-1H-pyrrole-2-carboxylic acid {[5-(4-but-2-ynyloxy-benzenesulfinyl)-5-hydroxy-carbamoylpentyl-carbamoyl]-methyl}-amide [Example 61]
IC50 (MMP-1): 5600 nM | IC50 ([1]; Table 1, first part): 22.5 nM

IC50 (MMP-1): 4600 nM | IC50 ([1]; Table 1, first part): 20.1 nM
Compound: 2-(4-But-2-ynyloxy-benzenesulfinyl)-6-(4-thiophen-2-yl-butyrylamino)-hexanoic acid hydroxyamide [Example 58]

IC50 (MMP-1): 4600 nM | IC50 ([1]; Table 1, first part): 24.4 nM
Compound: 2-(4-But-2-ynyloxy-benzenesulfinyl)-6-[2-(3,4-dichloro-phenyl)-acetylamino]-hexanoic acid hydroxyamide [Example 57]

MMP13 % @ 10 μM (MMP-13): 71% | MMP1 % @ 10 μM (MMP-1): 26% | IC50 ([1]; Table 1, second part, footnote a: IC50 (nM)): 82 nM
Compound: 2-{[4-(2-butynyloxy)phenyl]sulfonyl}-2-(4-chlorophenyl)-N-hydroxyacetamide [Example 102]
TNFalpha at 3 uM, THP (percent change) [2]: −10%

IC50 (MMP-1): 3400 nM | IC50 ([1]; Table 1, first part): 22.6 nM
Compound: 9H-Xanthene-9-carboxylic acid [5-(4-but-2-ynyloxy-benzenesulfinyl)-5-hydroxycarbamoyl-pentyl]-amide [Example 59]

melting point: 114 to 116 °C
Compound: CC#CCOc1ccc(S(=O)(=O)C(C)(Cc2ccc(OCCN3CCCCC3)cc2)C(=O)NO)cc1 (centres unmarked) (as salt: hydrochloride) [Example 1, 2-(4-But-2-ynyloxy-benzenesulfonyl)-N-hydroxy-2-methyl-3-[4-(2-piperidin-1-yl-ethoxy)-phenyl]-propionamide]

melting point: 154 to 156 °C
Compound: CC#CCOc1ccc(S(=O)(=O)C(C)(Cc2cccnc2)C(=O)NO)cc1 (centres unmarked) (as salt: hydrochloride) [Example 3, 2-(4Buty-2-ynyloxy-phenylsulfonyl)-N-hydroxy-2-methyl-3-pyridin-3-ylpropionamide]

Compound: CC#CCOc1ccc([S+]([O-])[C@@H](C(=O)NO)c2ccc(Br)cc2)cc1 (single isomer, unassigned) [Example 87]
inhibition at 3 µM [2]: -5%

melting point: 92 to 94 °C
Compound: CC#CCOc1ccc(S(=O)(=O)C(C)(Cc2ccc(-c3ccccc3)cc2)C(=O)NO)cc1 (centres unmarked) [Example 2, 3-Biphenyl-4-yl-2-(4-Buty-2-ynyloxy-phenylsulfonyl)-N-hydroxy-2-methyl-propionamide]

melting point: 102 to 104 °C
Compound: CC#CCOc1ccc(SC(C)C(=O)NO)cc1 (centres unmarked) [Example 4, 2-(4-Buty-2-ynyloxy-phenylsulfanyl)-N-hydroxy-propionamide]

melting point: 125 °C
Compound: CC#CCOc1ccc(SC(CCCCCC)C(=O)NO)cc1 (centres unmarked) [Example 6, 2-(4-But-2-ynyloxy-phenylsulfanyl)-octanoic Acid Hydroxamide]

melting point: 112.2 °C
Compound: CC#CCOc1ccc([S@@+]([O-])[C@@H](CCCCCC)C(=O)NO)cc1 [Example 8, (S)-2-[(S)-[4-(2-Butynyloxy)phenylsulfinyl)]-N-hydroxyoctanamide]

melting point: 116 to 118 °C
Compound: CC#CCOc1ccc(OCCC(=O)NO)cc1 [Example 9, 3-(4-But-2-ynyloxy-phenoxy)-N-hydroxy-propionamide]

melting point: 123 to 125 °C
Compound: CC#CCOc1ccc(OCCCC(=O)NO)cc1 [Example 10, 4-(4-But-2-ynyloxy-phenoxy)-N-hydroxy-butyramide]

melting point: 130 to 132 °C
Compound: CC#CCOc1ccc(OCC(=O)NO)cc1 [Example 11, 2-(4-But-2-ynyloxy-phenoxy)-N-hydroxy-acetamide]

MMP13 % @ 10 μM (MMP-13): 17% | MMP1 % @ 10 μM (MMP-1): 7% | TACE % @ 10 μM ([1]; Table 1, second part, footnote a: % @ 10 μM): 15.63%
Compound: CC#CCOc1ccc([S+]([O-])C(C(=O)NO)c2cccc3ccccc23)cc1 (centres unmarked) [Example 93, 2-{[4-(2-Butynyloxy)phenyl]sulfinyl}-N-hydroxy-2-(1-napthyl)acetamide]
TNFalpha at 3 uM, THP (percent change) [2]: 1%

Compound: CC#CCOc1ccc(SC(C(=O)NO)c2ccc(OCC)cc2)cc1 (centres unmarked) [Example 100, 2-{[4-(2-butynyloxy)phenyl]sulfanyl}-N-hydroxy-2-(4-ethoxyphenyl)acetamide]
inhibition at 3 µM [2]: 0%

Compound: CC#CCOc1ccc([S+]([O-])C(C(=O)NO)c2ccc(OCC)cc2)cc1 (centres unmarked) [Example 101, 2-{[4-(2-Butynyloxy)phenyl]sulfinyl}-N-hydroxy-2-(4-ethoxyphenyl)acetamide]
inhibition at 3 µM [2]: -1%

Compound: CC#CCOc1ccc(SC(C(=O)NO)c2cccc(Br)c2)cc1 (centres unmarked) [Example 103, 2-{[4-(2-Butynyloxy)phenyl]sulfanyl}-N-hydroxy-2-(3-bromophenyl)acetamide]
inhibition at 3 µM [2]: -15%

melting point: 103 °C
Compound: CC#CCOc1ccc(S(=O)(=O)C(C(=O)NO)C2CCN(C(C)=O)CC2)cc1 (centres unmarked) [Example 121, 2-(1-acetyl-4-piperidinyl)-2-{[4-(2-butynyloxy)phenyl]sulfonyl}-N-hydroxyacetamide]

melting point: 175 to 177 °C
Compound: CC#CCOc1ccc(S(=O)(=O)C(C(=O)NO)C2CCSCC2)cc1 (centres unmarked) [Example 123, 2-{[4-(2-Butynyloxy)phenyl]sulfonyl}-N-hydroxy-2-tetrahydro-2H-thiopyran-4yl-acetamide]

IC50 (MMP-1): 3900 nM | IC50 ([1]; Table 1, first part): 21.9 nM
Compound: N-[5-(4-But-2-ynyloxy-benzenesulfinyl)-5-hydroxycarbamoyl-pentyl]-2-phenethyl-benzamide [Example 56]

IC50 (MMP-1): 4000 nM | IC50 ([1]; Table 1, first part): 15.2 nM
Compound: Quinoline-3-carboxylic Acid [5-(4-but-2-ynyloxy-benzenesulfinyl)-5-hydroxycarbamoyl-pentyl]-amide [Example 53]
